In patent US20150307938A1, “METHOD TO IDENTIFY A NOVEL CLASS OF IMMUNOLOGIC ADJUVANTS” (Lancell, L.L.C., priority 2011, published 2015):

System: skin
Assay: Affymetrix microarray of skin, DBP-4 hr and analogs vs. untreated; gene selection by log-2 fold change, Wilcoxon, Kendall tau (Tables 8, 9)
Type: in vivo, mouse
[1] = Kendall tau, expression vs. output

## CCCCOC(=O)c1ccccc1C(=O)OCCCC [DBP, dibutylphthalate]
[1]
  Oxr1 NM_001130166_at Kendall: Yes
  Pgam2 NM_018870_at Kendall: No
  Pigyl NM_001082532_at Kendall: Yes
  Pparg NM_001127330_at Kendall: Yes
  Ppih NM_001110129_at Kendall: Yes
  Prg4 NM_021400_at Kendall: No
  Retnla NM_020509_at Kendall: No
  Rffl NM_001007465_at Kendall: Yes
  Rn18s NR_003278_at Kendall: No
  Rpl3l NM_025425_at Kendall: No
  Slc39a14 NM_001135151_at Kendall: Yes
  Sln NM_025540_at Kendall: No
  Smpx NM_025357_at Kendall: No
  Tnfrsf9 NM_001077508_at Kendall: Yes
  Tnfrsf9 NM_001077509_at Kendall: Yes
  Tnni1 NM_021467_at Kendall: No
  Trdn NM_029726_at Kendall: No
  Trf NM_133977_at Kendall: No
  Trp63 NM_001127259_at Kendall: Yes
  Trp63 NM_001127260_at Kendall: Yes
  Trp63 NM_001127262_at Kendall: Yes
  Trp63 NM_001127264_at Kendall: Yes
  Ttn NM_028004_at Kendall: No
  Wbp1 NM_001083922_at Kendall: Yes
  Wbp1 NM_001083923_at Kendall: Yes
  Wfdc2 NM_026323_at Kendall: No
  Zfp68 NM_001044747_at Kendall: Yes
  Zfp187 NM_001013786_at Kendall: Yes
  Zfp518b NM_001081144_at Kendall: Yes
  Zfp943 NM_001025373_at Kendall: Yes
Map3k8 NM_007746_at, DBP-4 hr vs. untreated
  Wilcoxon: No
Map3k8 NM_007746_at, Kendall tau coefficient
  Kendall: No
NM_007403_at, DBP-4 hr
  DBP Expression: Adam8: 8.84
NM_007464_at, DBP-4 hr
  DBP Expression: Birc3: 10.36
NM_007570_at, DBP-4 hr
  DBP Expression: Btg2: 10.63
NM_007679_at, DBP-4 hr
  DBP Expression: Cebpd: 10.17
NM_007706_at, DBP-4 hr
  DBP Expression: Socs2: 8.92
NM_007707_at, DBP-4 hr
  DBP Expression: Socs3: 9.48
NM_007746_at, DBP-4 hr
  DBP Expression: Map3k8: 8.72
NM_007780_at, DBP-4 hr
  DBP Expression: Csf2rb: 7.73
NM_007791_at, DBP-4 hr
  DBP Expression: Csrp1: 9.89
NM_007913_at, DBP-4 hr
  DBP Expression: Egr1: 12.15
NM_007974_at, DBP-4 hr
  DBP Expression: F2rl1: 9.38
NM_008009_at, DBP-4 hr
  DBP Expression: Fgfbp1: 11.47
NM_008125_at, DBP-4 hr
  DBP Expression: Gjb2: 8.85
NM_008152_at, DBP-4 hr
  DBP Expression: Gpr65: 5.48
NM_008176_at, DBP-4 hr
  DBP Expression: Cxcl1: 10.24
NM_008194_at, DBP-4 hr
  DBP Expression: Gyk: 9.63
NM_008230_at, DBP-4 hr
  DBP Expression: Hdc: 8.51
NM_008348_at, DBP-4 hr
  DBP Expression: Il10ra: 6.97
NM_008361_at, DBP-4 hr
  DBP Expression: Il1b: 7.67
NM_008372_at, DBP-4 hr
  DBP Expression: Il7r: 7.70
NM_008416_at, DBP-4 hr
  DBP Expression: Junb: 9.71
NM_008476_at, DBP-4 hr
  DBP Expression: Krt6a: 10.76
NM_008630_at, DBP-4 hr
  DBP Expression: Mt2: 13.23
NM_008871_at, DBP-4 hr
  DBP Expression: Serpine1: 8.32
NM_009140_at, DBP-4 hr
  DBP Expression: Cxcl2: 8.67
NM_009264_at, DBP-4 hr
  DBP Expression: Sprr1a: 10.84
NM_009285_at, DBP-4 hr
  DBP Expression: Stc1: 7.56
NM_009396_at, DBP-4 hr
  DBP Expression: Tnfaip2: 8.85
NM_009397_at, DBP-4 hr
  DBP Expression: Tnfaip3: 7.22
NM_009398_at, DBP-4 hr
  DBP Expression: Tnfaip6: 8.79
NM_009421_at, DBP-4 hr
  DBP Expression: Traf1: 6.04
NM_009834_at, DBP-4 hr
  DBP Expression: Ccrn4l: 10.05
NM_009851_at, DBP-4 hr
  DBP Expression: Cd44: 9.82
NM_009890_at, DBP-4 hr
  DBP Expression: Ch25h: 7.68
NM_009895_at, DBP-4 hr
  DBP Expression: Cish: 9.37
NM_010120_at, DBP-4 hr
  DBP Expression: Eif1a: 9.39
NM_010139_at, DBP-4 hr
  DBP Expression: Epha2: 8.60
NM_010220_at, DBP-4 hr
  DBP Expression: Fkbp5: 8.58
NM_010235_at, DBP-4 hr
  DBP Expression: Fosl1: 6.85
NM_010415_at, DBP-4 hr
  DBP Expression: Hbegf: 8.85
NM_010444_at, DBP-4 hr
  DBP Expression: Nr4a1: 10.34
NM_010493_at, DBP-4 hr
  DBP Expression: Icam1: 10.54
NM_010499_at, DBP-4 hr
  DBP Expression: Ier2: 10.73
NM_010516_at, DBP-4 hr
  DBP Expression: Cyr61: 9.37
NM_010591_at, DBP-4 hr
  DBP Expression: Jun: 9.74
NM_011019_at, DBP-4 hr
  DBP Expression: Osmr: 7.49
NM_011113_at, DBP-4 hr
  DBP Expression: Plaur: 7.68
NM_011227_at, DBP-4 hr
  DBP Expression: Rab20: 6.73
NM_011331_at, DBP-4 hr
  DBP Expression: Ccl12: 8.47
NM_011333_at, DBP-4 hr
  DBP Expression: Ccl2: 9.45
NM_011404_at, DBP-4 hr
  DBP Expression: Slc7a5: 10.00
NM_011498_at, DBP-4 hr
  DBP Expression: Bhlhe40: 10.32
NM_011574_at, DBP-4 hr
  DBP Expression: Cirh1a: 9.51
NM_011756_at, DBP-4 hr
  DBP Expression: Zfp36: 10.39
NM_013498_at, DBP-4 hr
  DBP Expression: Crem: 6.91
NM_013542_at, DBP-4 hr
  DBP Expression: Gzmb: 5.74
NM_013602_at, DBP-4 hr
  DBP Expression: Mt1: 12.73
